# Reference: US8598357B2, “Benzodioxole piperidine compounds” (Hoffmann-La Roche Inc., priority 2011, dated 2013)
# Like-named read-outs stand apart in the source and are kept apart here.
# How the values were obtained:
# 5-HT2A receptor = 5-HT2A receptor (Homo sapiens (Human), UniProt P28223); test: Radioligand binding assay ([3H]-ketanserin) on membranes of HEK293 EBNA cells expressing human 5-HT2A receptor
# Experimental: (§1) HEK293 EBNA cells were transiently transfected with expression plasmids encoding for the human D2 or D3 or for the human 5-HT2A receptor, respectively. The cells were harvested 48 h post-transfection, washed three times with cold PBS and stored at −80° C. prior to use. The pellet was suspended in cold 50 mM Tris-HCl buffer containing 10 mM EDTA (pH 7.4) and was homogenized with a Polytron (Kinematica AG, Basel, Switzerland) for 20-30 sec at 12.000 rpm. After centrifugation at 48.000×g for 30 min at 4° C., the pellet was resuspended in cold 10 mM Tris-HCl buffer containing 0.1 mM EDTA (pH 7.4), homogenized, and centrifuged as above. This pellet was further resuspended in a smaller volume of ice cold 10 mM Tris-HCl buffer containing 0.1 mM EDTA (pH 7.4) and homogenized with a Polytron for 20-30 sec at 12.000 rpm. The protein content of this homogenate was determined with the Bio-Rad (Bradford) Protein Assay (Biorad Laboratories GmbH, München, Germany) according to the instructions of the manufacturer using gamma globulin as the standard. This homogenate was stored at −80° C. in aliquots and thawed immediately prior to use.
# (§2) Aliquots of membrane preparations were thawed at RT, resuspended in assay buffer (D2, D3: 50 mM Tris-HCl, 120 mM NaCl, 5 mM MgCl2, 1 mM EDTA, 5 mM KCl, 1.5 mM CaCl2, pH=7.4; 5-HT2A: 50 mM Tris-HCl, 10 mM MgCl2, 1 mM EGTA, pH=7.4), homogenized with a Polytron for 20-30 sec at 12.000 rpm and adjusted to a final concentration of approximately 7.5 μg protein/well (D2, D3) and 15 μg protein/well (5-HT2A), respectively.
# (§3) The nonspecific binding was determined with equally composed reaction mixtures in the presence of 10 μM unlabelled spiperone. Per well 45 μl of Microscint 40 (Perkin Elmer, Schwerzenbach, Switzerland) was added, plates for sealed, shaken for 20 min and counted for 3 min on a Topcount Microplate Scintillation Counter (Can berra Packard SA, Ziirich, Switzerland) with quenching correction.
# (§4) The CPM value for each duplicate of a concentration of competing compound was averaged (y1), then the % specific binding was calculated according to the equation (((y1−non-specific)/(total binding−non-specific))×100). Graphs were plotted with the % specific binding using XLfit, a curve fitting program that iteratively plots the data using Levenberg-Marquardt algorithm. The single site competition analysis equation used was y=A+((B−A)/(1+((x/C)D))), where y is the % specific binding, A is the minimum y, B is the maximum y, C is the IC50, x is the log 10 of the concentration of the competing compound and D is the slope of the curve (the Hill Coefficient). […] The affinity constant (K) was calculated using the Cheng-Prusoff equation Ki=(IC50/1+([L]/Kd), where [L] is the concentration of radioligand and Kd is the dissociation constant of the radioligand at the receptor as determined by the saturation isotherm.
# D3 receptor = D3 receptor (Homo sapiens (Human), UniProt P35462); test: Radioligand binding assay ([3H]-spiperone) on membranes of HEK293 EBNA cells expressing human D3 receptor
# D3 receptor, sequence (P35462 whole entry): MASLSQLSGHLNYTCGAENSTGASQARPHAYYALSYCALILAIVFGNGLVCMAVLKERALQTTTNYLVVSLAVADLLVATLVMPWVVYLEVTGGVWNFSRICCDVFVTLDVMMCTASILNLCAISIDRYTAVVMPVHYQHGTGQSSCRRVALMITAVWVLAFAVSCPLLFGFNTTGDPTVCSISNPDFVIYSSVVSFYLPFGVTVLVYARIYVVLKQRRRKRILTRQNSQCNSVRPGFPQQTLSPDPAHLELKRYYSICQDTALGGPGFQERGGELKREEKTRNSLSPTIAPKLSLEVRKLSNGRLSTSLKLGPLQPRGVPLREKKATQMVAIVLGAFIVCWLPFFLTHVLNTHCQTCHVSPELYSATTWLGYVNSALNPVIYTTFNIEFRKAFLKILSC
# Experimental: as §1, §2, §3, §4
# D2 receptor = D2 receptor (Homo sapiens (Human), UniProt P14416); test: Radioligand binding assay ([3H]-spiperone) on membranes of HEK293 EBNA cells expressing human D2 receptor; details: human receptor in HEK293 EBNA cells; 0.7 nM [3H]-spiperone
# D2 receptor, sequence (P14416 whole entry): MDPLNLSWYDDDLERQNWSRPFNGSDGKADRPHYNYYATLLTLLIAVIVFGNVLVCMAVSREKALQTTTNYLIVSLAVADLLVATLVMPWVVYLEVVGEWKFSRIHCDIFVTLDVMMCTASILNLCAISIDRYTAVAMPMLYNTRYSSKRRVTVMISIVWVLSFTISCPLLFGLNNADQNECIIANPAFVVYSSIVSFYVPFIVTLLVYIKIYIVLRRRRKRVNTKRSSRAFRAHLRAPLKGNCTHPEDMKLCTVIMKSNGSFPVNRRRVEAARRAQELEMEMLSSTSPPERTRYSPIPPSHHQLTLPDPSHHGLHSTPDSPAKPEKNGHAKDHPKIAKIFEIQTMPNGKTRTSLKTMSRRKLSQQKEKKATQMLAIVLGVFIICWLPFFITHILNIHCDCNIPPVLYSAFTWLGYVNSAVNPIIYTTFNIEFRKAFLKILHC
# Experimental: as §1, §2, §3, §4
# [1] = read-out: 5HT2A Ki, human receptor in HEK293 EBNA cells, 1.1 nM [3H]-ketanserin
# [2] = read-out: D3 Ki, human receptor in HEK293 EBNA cells, 0.5 nM [3H]-spiperone
SMILES,Ki (5-HT2A receptor),Ki (D3 receptor),Ki (5-HT2A receptor; [1]),Ki (D2 receptor),Ki (D3 receptor; [2]),Ki (5-HT2A receptor; read-out: 5HT2A Ki)
"O=C(C[C@H]1COCCO1)N[C@H]1CC[C@H](CCN2CCC(c3cccc4c3OCO4)CC2)CC1 (single isomer, unassigned) [Example 4, Trans-N-{4-[2-(4-Benzo[1,3]dioxol-4-yl-piperidin-1-yl)-ethyl]-cyclohexyl}-2-(S) or (R)-[1,4]dioxan-2-yl-acetamide]",0.0119 µM,0.00979 µM,,,,
"O=C(C[C@@H]1COCCO1)N[C@H]1CC[C@H](CCN2CCC(c3cccc4c3OCO4)CC2)CC1 (single isomer, unassigned) [Example 5, Trans-N-{4-[2-(4-Benzo[1,3]dioxol-4-yl-piperidin-1-yl)-ethyl]-cyclohexyl}-2-(R) or (S)-[1,4]dioxan-2-yl-acetamide]",0.017 µM,0.0095 µM,,,,
"CC(=O)N[C@H]1CC[C@H](CCN2CCC(c3cccc4c3OCO4)CC2)CC1 [Example 1, Trans-N-{4-[2-(4-Benzo[1,3]dioxol-4-yl-piperidin-1-yl)-ethyl]-cyclohexyl}-acetamide]",,,0.0239 µM,0.254 µM,0.00499 µM,
"COCCC(=O)N[C@H]1CC[C@H](CCN2CCC(c3cccc4c3OCO4)CC2)CC1 [Example 2, Trans-N-{4-[2-(4-Benzo[1,3]dioxol-4-yl-piperidin-1-yl)-ethyl]-cyclohexyl}-3-methoxy-propionamide]",,,0.0382 µM,0.427 µM,0.00582 µM,
"O=C(CC1COCCO1)N[C@H]1CC[C@H](CCN2CCC(c3cccc4c3OCO4)CC2)CC1 (stereo partly drawn) [Example 3, Trans-N-{4-[2-(4-Benzo[1,3]dioxol-4-yl-piperidin-1-yl)-ethyl]-cyclohexyl}-2-[1,4]dioxan-2-yl-acetamide]",,,,,0.00888 µM,0.0139 µM
"O=C(CC1CCCO1)N[C@H]1CC[C@H](CCN2CCC(c3cccc4c3OCO4)CC2)CC1 (stereo partly drawn) [Example 6, Trans-N-{4-[2-(4-Benzo[1,3]dioxol-4-yl-piperidin-1-yl)-ethyl]-cyclohexyl}-2-(tetrahydro-furan-2-yl)-acetamide]",,,,0.389 µM,0.00906 µM,0.021 µM
"CCC(=O)N[C@H]1CC[C@H](CCN2CCC(c3cccc4c3OCO4)CC2)CC1 [Example 7, Trans-N-{4-[2-(4-Benzo[1,3]dioxol-4-yl-piperidin-1-yl)-ethyl]-cyclohexyl}-propionamide]",,,0.0166 µM,0.204 µM,0.00419 µM,
"O=C(CC1CC1)N[C@H]1CC[C@H](CCN2CCC(c3cccc4c3OCO4)CC2)CC1 [Example 8, Trans-N-{4-[2-(4-Benzo[1,3]dioxol-4-yl-piperidin-1-yl)-ethyl]-cyclohexyl}-2-cyclopropyl-acetamide]",,,0.0176 µM,0.303 µM,0.00254 µM,
"O=C(N[C@H]1CC[C@H](CCN2CCC(c3cccc4c3OCO4)CC2)CC1)c1ccccc1 [Example 9, Trans-N-{4-[2-(4-Benzo[1,3]dioxol-4-yl-piperidin-1-yl)-ethyl]-cyclohexyl}-benzamide]",,,,0.12 µM,0.00363 µM,0.00514 µM
"O=C(CC(F)(F)F)N[C@H]1CC[C@H](CCN2CCC(c3cccc4c3OCO4)CC2)CC1 [Example 10, Trans-N-{4-[2-(4-Benzo[1,3]dioxol-4-yl-piperidin-1-yl)-ethyl]-cyclohexyl}-3,3,3-trifluoro-propionamide]",,,0.0181 µM,0.209 µM,0.00398 µM,
"O=C(CCC(F)(F)F)N[C@H]1CC[C@H](CCN2CCC(c3cccc4c3OCO4)CC2)CC1 [Example 11, Trans-N-{4-[2-(4-Benzo[1,3]dioxol-4-yl-piperidin-1-yl)-ethyl]-cyclohexyl}-4,4,4-trifluoro-butyramide]",,,0.032 µM,0.41 µM,0.00774 µM,
"O=C(N[C@H]1CC[C@H](CCN2CCC(c3cccc4c3OCO4)CC2)CC1)C(O)C(F)(F)F (stereo partly drawn) [Example 12, Trans-N-{4-[2-(4-Benzo[1,3]dioxol-4-yl-piperidin-1-yl)-ethyl]-cyclohexyl}-3,3,3-trifluoro-2-hydroxy-propionamide]",,,,0.236 µM,0.00845 µM,0.014 µM
"COCC(=O)N[C@H]1CC[C@H](CCN2CCC(c3cccc4c3OCO4)CC2)CC1 [Example 13, Trans-N-{4-[2-(4-Benzo[1,3]dioxol-4-yl-piperidin-1-yl)-ethyl]-cyclohexyl}-2-methoxy-acetamide]",,,,0.507 µM,0.018 µM,0.0146 µM
"N#Cc1ccc(C(=O)N[C@H]2CC[C@H](CCN3CCC(c4cccc5c4OCO5)CC3)CC2)cc1 [Example 14, Trans-N-{4-[2-(4-Benzo[1,3]dioxol-4-yl-piperidin-1-yl)-ethyl]-cyclohexyl}-4-cyano-benzamide]",,,0.00902 µM,0.153 µM,0.00779 µM,
"Cc1ccc(C(=O)N[C@H]2CC[C@H](CCN3CCC(c4cccc5c4OCO5)CC3)CC2)cn1 [Example 15, Trans-N-{4-[2-(4-Benzo[1,3]dioxol-4-yl-piperidin-1-yl)-ethyl]-cyclohexyl}-6-methyl-nicotinamide]",,,0.0115 µM,0.133 µM,0.0116 µM,
"O=C(C[C@H]1CCCO1)N[C@H]1CC[C@H](CCN2CCC(c3cccc4c3OCO4)CC2)CC1 [Example 16, Trans-N-{4-[2-(4-Benzo[1,3]dioxol-4-yl-piperidin-1-yl)-ethyl]-cyclohexyl}-2-(R)-tetrahydro-furan-2-yl-acetamide]",,,,0.228 µM,0.0108 µM,0.028 µM
"O=C(C[C@@H]1CCCO1)N[C@H]1CC[C@H](CCN2CCC(c3cccc4c3OCO4)CC2)CC1 [Example 17, Trans-N-{4-[2-(4-Benzo[1,3]dioxol-4-yl-piperidin-1-yl)-ethyl]-cyclohexyl}-2-(S)-tetrahydro-furan-2-yl-acetamide]",,,,0.531 µM,0.00641 µM,0.0338 µM
"COC(=O)N[C@H]1CC[C@H](CCN2CCC(c3cccc4c3OCO4)CC2)CC1 [Example 18, Trans-{4-[2-(4-Benzo[1,3]dioxol-4-yl-piperidin-1-yl)-ethyl]-cyclohexyl}-carbamic acid methyl ester]",,,,0.133 µM,0.00326 µM,0.0218 µM
"Cc1cc(CC(=O)N[C@H]2CC[C@H](CCN3CCC(c4cccc5c4OCO5)CC3)CC2)on1 [Example 19, Trans-N-{4-[2-(4-Benzo[1,3]dioxol-4-yl-piperidin-1-yl)-ethyl]-cyclohexyl}-2-(3-methyl-isoxazol-5-yl)-acetamide]",,,0.0198 µM,0.516 µM,0.00119 µM,
"N#CCC(=O)N[C@H]1CC[C@H](CCN2CCC(c3cccc4c3OCO4)CC2)CC1 [Example 20, Trans-N-{-4-[2-(4-Benzo[1,3]dioxol-4-yl-piperidin-1-yl)-ethyl]-cyclohexyl}-2-cyano-acetamide]",,,,0.203 µM,0.00312 µM,0.0225 µM
"O=C(CC1(O)CCCCC1)N[C@H]1CC[C@H](CCN2CCC(c3cccc4c3OCO4)CC2)CC1 [Example 21, Trans-N-{4-[2-(4-Benzo[1,3]dioxol-4-yl-piperidin-1-yl)-ethyl]-cyclohexyl}-2-(1-hydroxy-cyclohexyl)-acetamide]",,,,0.361 µM,0.0104 µM,0.0157 µM
"O=C(CC1CCCCO1)N[C@H]1CC[C@H](CCN2CCC(c3cccc4c3OCO4)CC2)CC1 (stereo partly drawn) [Example 22, Trans-N-{4-[2-(4-Benzo[1,3]dioxol-4-yl-piperidin-1-yl)-ethyl]-cyclohexyl}-2-(tetrahydro-pyran-2-yl)-acetamide]",,,,0.523 µM,0.00935 µM,0.0156 µM
"CC(C)C(=O)N[C@H]1CC[C@H](CCN2CCC(c3cccc4c3OCO4)CC2)CC1 [Example 23, Trans-N-{4-[2-(4-Benzo[1,3]dioxol-4-yl-piperidin-1-yl)-ethyl]-cyclohexyl}-isobutyramide]",,,,0.397 µM,0.00826 µM,0.017 µM
"CC(C)CC(=O)N[C@H]1CC[C@H](CCN2CCC(c3cccc4c3OCO4)CC2)CC1 [Example 24, Trans-N-{4-[2-(4-Benzo[1,3]dioxol-4-yl-piperidin-1-yl)-ethyl]-cyclohexyl}-3-methyl-butyramide]",,,0.0285 µM,0.239 µM,0.005 µM,
"CCCC(=O)N[C@H]1CC[C@H](CCN2CCC(c3cccc4c3OCO4)CC2)CC1 [Example 25, Trans-N-{4-[2-(4-Benzo[1,3]dioxol-4-yl-piperidin-1-yl)-ethyl]-cyclohexyl}-butyramide]",,,0.0358 µM,0.277 µM,0.0057 µM,
"O=C(N[C@H]1CC[C@H](CCN2CCC(c3cccc4c3OCO4)CC2)CC1)C1CC1(F)F (stereo partly drawn) [Example 26, Trans-2,2-Difluoro-cyclopropanecarboxylic acid {4-[2-(4-benzo[1,3]dioxol-4-yl-piperidin-1-yl)-ethyl]-cyclohexyl}-amide]",,,0.0267 µM,0.194 µM,0.00772 µM,
"COC(C)CC(=O)N[C@H]1CC[C@H](CCN2CCC(c3cccc4c3OCO4)CC2)CC1 (stereo partly drawn) [Example 27, Trans-N-{4-[2-(4-Benzo[1,3]dioxol-4-yl-piperidin-1-yl)-ethyl]-cyclohexyl}-3-methoxy-butyramide]",,,,0.402 µM,0.00752 µM,0.0336 µM
"O=C(N[C@H]1CC[C@H](CCN2CCC(c3cccc4c3OCO4)CC2)CC1)C1CC(Cl)C1 (stereo partly drawn) [Example 28, 3-Chloro-cyclobutanecarboxylic acid trans-{4-[2-(4-benzo[1,3]dioxol-4-yl-piperidin-1-yl)-ethyl]-cyclohexyl}-amide]",,,,0.305 µM,0.00636 µM,0.0186 µM
"O=C(CC1COC1)N[C@H]1CC[C@H](CCN2CCC(c3cccc4c3OCO4)CC2)CC1 [Example 29, Trans-N-{4-[2-(4-Benzo[1,3]dioxol-4-yl-piperidin-1-yl)-ethyl]cyclohexyl}-2-oxetan-3-yl-acetamide]",,,0.0219 µM,0.258 µM,0.00519 µM,
